From PubChem BioAssay (NCI)
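Cells were grown in 96-well plates and exposed to each compound for 48 hours at five concentrations; endpoints were interpolated linearly between bracketing concentrations, or set to the highest concentration if not reached. GI50 = concentration required for 50% inhibition of growth. Definition used: TGI = concentration required for complete inhibition of growth.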

Key:
Experiment in all cases: NCI anticancer screen, dose series, 48 h
HOP-92 NSCLC = tested on: HOP-92 NSCLC
SR leukemia = tested on: SR leukemia
CAKI-1 renal = tested on: CAKI-1 renal
MDA-MB-231 breast = tested on: MDA-MB-231 breast
A498 renal = tested on: A498 renal
SN12C renal = tested on: SN12C renal
HS 578T breast = tested on: HS 578T breast
MDA-MB-435 = tested on: MDA-MB-435
TK-10 renal = tested on: TK-10 renal
LOX IMVI melanoma = tested on: LOX IMVI melanoma
UO-31 renal = tested on: UO-31 renal
HOP-62 NSCLC = tested on: HOP-62 NSCLC
OVCAR-3 ovarian = tested on: OVCAR-3 ovarian
U251 CNS = tested on: U251 CNS
NCI-H23 lung = tested on: NCI-H23 lung
SF-539 CNS = tested on: SF-539 CNS
MDA-N = tested on: MDA-N
SW-620 colon = tested on: SW-620 colon
RXF 393 renal = tested on: RXF 393 renal
ACHN renal = tested on: ACHN renal
MOLT-4 leukemia = tested on: MOLT-4 leukemia
NCI-H522 lung = tested on: NCI-H522 lung
M14 melanoma = tested on: M14 melanoma
OVCAR-8 ovarian = tested on: OVCAR-8 ovarian
HCC-2998 colon = tested on: HCC-2998 colon
UACC-257 melanoma = tested on: UACC-257 melanoma
CCRF-CEM leukemia = tested on: CCRF-CEM leukemia
SK-OV-3 ovarian = tested on: SK-OV-3 ovarian
SNB-75 CNS = tested on: SNB-75 CNS
BT-549 breast = tested on: BT-549 breast
RPMI-8226 leukemia = tested on: RPMI-8226 leukemia
SF-268 CNS = tested on: SF-268 CNS
A549 NSCLC = tested on: A549 NSCLC
EKVX NSCLC = tested on: EKVX NSCLC
SNB-19 CNS = tested on: SNB-19 CNS
NCI-H226 lung = tested on: NCI-H226 lung
HL-60(TB) leukemia = tested on: HL-60(TB) leukemia
PC-3 prostate = tested on: PC-3 prostate
UACC-62 melanoma = tested on: UACC-62 melanoma
NCI/ADR-RES ovarian = tested on: NCI/ADR-RES ovarian
MALME-3M melanoma = tested on: MALME-3M melanoma
IGROV1 ovarian = tested on: IGROV1 ovarian
HT29 colon = tested on: HT29 colon
786-0 renal = tested on: 786-0 renal
HCT-116 colon = tested on: HCT-116 colon
OVCAR-5 ovarian = tested on: OVCAR-5 ovarian
MCF7 breast = tested on: MCF7 breast
SK-MEL-28 melanoma = tested on: SK-MEL-28 melanoma
NCI-H460 lung = tested on: NCI-H460 lung
SF-295 CNS = tested on: SF-295 CNS
OVCAR-4 ovarian = tested on: OVCAR-4 ovarian
SK-MEL-2 melanoma = tested on: SK-MEL-2 melanoma
KM12 colon = tested on: KM12 colon
DU-145 prostate = tested on: DU-145 prostate
COLO 205 colon = tested on: COLO 205 colon
K-562 leukemia = tested on: K-562 leukemia
HCT-15 colon = tested on: HCT-15 colon
T-47D breast = tested on: T-47D breast
SK-MEL-5 melanoma = tested on: SK-MEL-5 melanoma

## CC(C)=CCC[C@]1(C)C=Cc2c(O)c3c(c(CC=C(C)C)c2O1)O[C@]12C(=C[C@@H]4CC1C(C)(C)O[C@@]2(C/C=C(/C)C(=O)O)C4=O)C3=O
HOP-92 NSCLC
  TGI: 9.16 µM
SR leukemia
  TGI: 0.939 µM
CAKI-1 renal
  TGI: 3.66 µM
MDA-MB-231 breast
  TGI: 4.23 µM
A498 renal
  TGI: 3.98 µM
SN12C renal
  TGI: 4.69 µM
HS 578T breast
  TGI: 9.68 µM
MDA-MB-435
  TGI: 3.72 µM
TK-10 renal
  TGI: 2.47 µM
LOX IMVI melanoma
  TGI: 4.95 µM
UO-31 renal
  TGI: 3.73 µM
HOP-62 NSCLC
  TGI: 3.11 µM
OVCAR-3 ovarian
  TGI: 2.67 µM
U251 CNS
  TGI: 3.31 µM
NCI-H23 lung
  TGI: 3.24 µM
SF-539 CNS
  TGI: 0.477 µM
MDA-N
  TGI: 4.59 µM
SW-620 colon
  TGI: 2.89 µM
RXF 393 renal
  TGI: 2.34 µM
ACHN renal
  TGI: 1.37 µM
MOLT-4 leukemia
  TGI: 1.8 µM
NCI-H522 lung
  TGI: 2.32 µM
M14 melanoma
  TGI: 3.19 µM
OVCAR-8 ovarian
  TGI: 4.19 µM
HCC-2998 colon
  TGI: 2.81 µM
UACC-257 melanoma
  TGI: 6.8 µM
CCRF-CEM leukemia
  TGI: 1.45 µM
SK-OV-3 ovarian
  TGI: 8.54 µM
SNB-75 CNS
  TGI: 3.28 µM
BT-549 breast
  TGI: 7.03 µM
RPMI-8226 leukemia
  TGI: 1.61 µM
SF-268 CNS
  TGI: 3.91 µM
A549 NSCLC
  TGI: 3.71 µM
EKVX NSCLC
  TGI: 4.39 µM
SNB-19 CNS
  TGI: 7.36 µM
NCI-H226 lung
  TGI: 3.93 µM
HL-60(TB) leukemia
  TGI: 0.706 µM
PC-3 prostate
  TGI: 2.23 µM
UACC-62 melanoma
  TGI: 4.57 µM
NCI/ADR-RES ovarian
  TGI: 6.96 µM
MALME-3M melanoma
  TGI: 3.76 µM
IGROV1 ovarian
  TGI: 2.81 µM
HT29 colon
  TGI: 1.85 µM
786-0 renal
  TGI: 2.4 µM
HCT-116 colon
  TGI: 1.5 µM
OVCAR-5 ovarian
  TGI: 2.94 µM
MCF7 breast
  TGI: 1.42 µM
SK-MEL-28 melanoma
  TGI: 3.26 µM
NCI-H460 lung
  TGI: 3.27 µM
SF-295 CNS
  TGI: 10 µM
OVCAR-4 ovarian
  TGI: 13.6 µM
SK-MEL-2 melanoma
  TGI: 4.13 µM
KM12 colon
  TGI: 2.25 µM

## CC(=O)Nc1ccc(NCC(=O)Nn2cnc3ccc(S(=O)(=O)Nc4ccc(NC(C)=O)cc4)cc3c2=O)cc1
HOP-92 NSCLC
  TGI: > 100 µM
SR leukemia
  TGI: > 100 µM
CAKI-1 renal
  TGI: > 100 µM
MDA-MB-231 breast
  TGI: > 100 µM
SN12C renal
  TGI: > 100 µM
HS 578T breast
  TGI: > 100 µM
MDA-MB-435
  TGI: > 100 µM
TK-10 renal
  TGI: > 100 µM
LOX IMVI melanoma
  TGI: > 100 µM
DU-145 prostate
  TGI: > 100 µM
UO-31 renal
  TGI: > 100 µM
HOP-62 NSCLC
  TGI: > 100 µM
OVCAR-3 ovarian
  TGI: > 100 µM
U251 CNS
  TGI: > 100 µM
NCI-H23 lung
  TGI: > 100 µM
SF-539 CNS
  TGI: > 100 µM
MDA-N
  TGI: > 100 µM
SW-620 colon
  TGI: > 100 µM
ACHN renal
  TGI: > 100 µM
MOLT-4 leukemia
  TGI: > 100 µM
NCI-H522 lung
  TGI: > 100 µM
M14 melanoma
  TGI: > 100 µM
OVCAR-8 ovarian
  TGI: > 100 µM
HCC-2998 colon
  TGI: > 100 µM
UACC-257 melanoma
  TGI: > 100 µM
CCRF-CEM leukemia
  TGI: > 100 µM
SK-OV-3 ovarian
  TGI: > 100 µM
SNB-75 CNS
  TGI: > 100 µM
BT-549 breast
  TGI: > 100 µM
RPMI-8226 leukemia
  TGI: > 100 µM
SF-268 CNS
  TGI: > 100 µM
COLO 205 colon
  TGI: > 100 µM
A549 NSCLC
  TGI: > 100 µM
EKVX NSCLC
  TGI: > 100 µM
SNB-19 CNS
  TGI: > 100 µM
NCI-H226 lung
  TGI: > 100 µM
HL-60(TB) leukemia
  TGI: > 100 µM
PC-3 prostate
  TGI: > 100 µM
UACC-62 melanoma
  TGI: > 100 µM
NCI/ADR-RES ovarian
  TGI: > 100 µM
MALME-3M melanoma
  TGI: > 100 µM
IGROV1 ovarian
  TGI: > 100 µM
HT29 colon
  TGI: > 100 µM
786-0 renal
  TGI: > 100 µM
HCT-116 colon
  TGI: > 100 µM
K-562 leukemia
  TGI: > 100 µM
OVCAR-5 ovarian
  TGI: > 100 µM
MCF7 breast
  TGI: > 100 µM
SK-MEL-28 melanoma
  TGI: > 100 µM
HCT-15 colon
  TGI: > 100 µM
NCI-H460 lung
  TGI: > 100 µM
SF-295 CNS
  TGI: > 100 µM
OVCAR-4 ovarian
  TGI: > 100 µM
SK-MEL-2 melanoma
  TGI: > 100 µM
KM12 colon
  TGI: > 100 µM

## Cc1cccc(N(C)C(=O)[C@@H]2[C@H](O)CCN2c2nc(C)cc(C(F)(F)F)c2C#N)c1
HOP-92 NSCLC
  GI50: 11 µM
  TGI: 53.1 µM
SR leukemia
  GI50: 5.24 µM
  TGI: 28.6 µM
CAKI-1 renal
  GI50: 29.1 µM
  TGI: > 100 µM
MDA-MB-231 breast
  GI50: 19.3 µM
  TGI: 46 µM
A498 renal
  GI50: 21.9 µM
  TGI: 69.8 µM
SN12C renal
  GI50: 17.3 µM
  TGI: 50.1 µM
HS 578T breast
  GI50: 25.7 µM
  TGI: > 100 µM
MDA-MB-435
  GI50: 32 µM
  TGI: > 100 µM
TK-10 renal
  GI50: 28.5 µM
  TGI: > 100 µM
LOX IMVI melanoma
  GI50: 3.61 µM
  TGI: 27.3 µM
DU-145 prostate
  GI50: 25.1 µM
  TGI: > 100 µM
UO-31 renal
  GI50: 14.8 µM
  TGI: 29.5 µM
HOP-62 NSCLC
  GI50: 25.8 µM
  TGI: > 100 µM
OVCAR-3 ovarian
  GI50: 15.2 µM
  TGI: 81.3 µM
U251 CNS
  GI50: 28.8 µM
  TGI: > 100 µM
NCI-H23 lung
  GI50: 31.2 µM
  TGI: > 100 µM
SF-539 CNS
  GI50: 15.9 µM
  TGI: 32.2 µM
SW-620 colon
  GI50: 37.8 µM
  TGI: > 100 µM
RXF 393 renal
  GI50: 14.6 µM
  TGI: 40.1 µM
ACHN renal
  GI50: 18.3 µM
  TGI: 41.9 µM
MOLT-4 leukemia
  GI50: 1.98 µM
  TGI: 53.8 µM
NCI-H522 lung
  GI50: 10.7 µM
  TGI: 32 µM
M14 melanoma
  GI50: 16.3 µM
  TGI: 34.5 µM
OVCAR-8 ovarian
  GI50: 28.1 µM
  TGI: > 100 µM
HCC-2998 colon
  GI50: 22.7 µM
  TGI: 88.1 µM
UACC-257 melanoma
  GI50: 28.3 µM
  TGI: > 100 µM
T-47D breast
  GI50: 23.2 µM
  TGI: > 100 µM
CCRF-CEM leukemia
  GI50: 25.8 µM
  TGI: > 100 µM
SK-OV-3 ovarian
  GI50: 24.1 µM
  TGI: 81.1 µM
SNB-75 CNS
  GI50: 31.4 µM
  TGI: > 100 µM
BT-549 breast
  GI50: 15.6 µM
  TGI: 45.2 µM
RPMI-8226 leukemia
  GI50: 16.3 µM
  TGI: 41.6 µM
SF-268 CNS
  GI50: 26.5 µM
  TGI: > 100 µM
COLO 205 colon
  GI50: 17.3 µM
  TGI: 34 µM
SK-MEL-5 melanoma
  GI50: 15.6 µM
  TGI: 30.6 µM
A549 NSCLC
  GI50: 21.9 µM
  TGI: > 100 µM
EKVX NSCLC
  GI50: 24.6 µM
  TGI: > 100 µM
SNB-19 CNS
  GI50: 31.1 µM
  TGI: > 100 µM
NCI-H226 lung
  GI50: 23.9 µM
  TGI: > 100 µM
HL-60(TB) leukemia
  GI50: 3.56 µM
  TGI: 17.4 µM
PC-3 prostate
  GI50: 15.4 µM
  TGI: 67.2 µM
UACC-62 melanoma
  GI50: 21.9 µM
  TGI: 74.5 µM
NCI/ADR-RES ovarian
  GI50: 22.6 µM
  TGI: 89.1 µM
MALME-3M melanoma
  GI50: 19.9 µM
  TGI: 59 µM
IGROV1 ovarian
  GI50: 26.5 µM
  TGI: 94.5 µM
HT29 colon
  GI50: 15.6 µM
  TGI: 49.1 µM
786-0 renal
  GI50: 21.6 µM
  TGI: 66.9 µM
HCT-116 colon
  GI50: 15.4 µM
  TGI: 29 µM
K-562 leukemia
  GI50: 0.747 µM
  TGI: > 100 µM
OVCAR-5 ovarian
  GI50: 25.4 µM
  TGI: 98.2 µM
MCF7 breast
  GI50: 26.1 µM
  TGI: > 100 µM
SK-MEL-28 melanoma
  GI50: 24.3 µM
  TGI: > 100 µM
HCT-15 colon
  GI50: 27.9 µM
  TGI: > 100 µM
NCI-H460 lung
  GI50: 31.8 µM
  TGI: > 100 µM
SF-295 CNS
  GI50: 20.3 µM
  TGI: 54.2 µM
OVCAR-4 ovarian
  GI50: 18.7 µM
  TGI: > 100 µM
SK-MEL-2 melanoma
  GI50: 15.9 µM
  TGI: 35 µM
KM12 colon
  GI50: 28.2 µM
  TGI: > 100 µM
